Results published in patent US11040954B1, “CXCR3 receptor agonists” (RECEPTOS LLC, priority 2016, dated 2021).
pEC50: −log10 of the molar value.

Target: T1, CXCR3 (Homo sapiens, UniProt P49682)
T1 construct: host or cells: CHO-K1 (cAMP Hunter CHOK1 CXCR3 Gi cell line)
T1 sequence (P49682 1-368): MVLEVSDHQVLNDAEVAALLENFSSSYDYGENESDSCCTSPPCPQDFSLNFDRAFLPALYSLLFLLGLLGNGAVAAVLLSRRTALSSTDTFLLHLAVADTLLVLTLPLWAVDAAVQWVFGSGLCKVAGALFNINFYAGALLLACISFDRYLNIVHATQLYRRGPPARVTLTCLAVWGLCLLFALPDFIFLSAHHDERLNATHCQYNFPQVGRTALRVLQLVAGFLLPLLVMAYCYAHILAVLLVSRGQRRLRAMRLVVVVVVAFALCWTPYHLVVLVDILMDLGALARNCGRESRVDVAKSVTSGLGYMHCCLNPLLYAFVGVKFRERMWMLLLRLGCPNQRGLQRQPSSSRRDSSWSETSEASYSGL
Experiment: CXCR3 cAMP agonist assay (cAMP Hunter CHOK1 CXCR3 Gi cell line, forskolin-stimulated, HitHunter cAMP detection)
Format: cell-based
Settings: cAMP Hunter CHOK1 CXCR3 Gi cells, 20 μM forskolin, 30 minutes; read-out: Activity (CXCR3 cAMP agonist assay compound EC50)
Outline: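 Agonist activity was measured as suppression of forskolin (20 μM)-induced cAMP, read by luminescent enzyme-fragment complementation with a cAMP standard curve and CXCL11 defining full efficacy. Assay used 50,000 CXCR3 Gi CHOK1 cells/well in pH 7.4 HEPES-buffered HBSS with 0.1% BSA, compound 0-10 μM over 12 points, 30 min incubation.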

Compound	pEC50
CC[C@@H]1CN(C(=O)CCC(=O)N2Cc3ccccc3C[C@H]2C(=O)N[C@@H](CCN)C(=O)Nc2ccc(Cl)c(C)c2)CCN1C [Compound 12-151]	> 7.30
CC[C@H]1CCN(C(=O)CCC(=O)N2Cc3ccccc3C[C@H]2C(=O)N[C@@H](CCN)C(=O)Nc2ccc(Cl)c(C)c2)C1 [Compound 12-153]	> 7.30
CC[C@@H]1CCN(C(=O)CCC(=O)N2Cc3ccccc3C[C@H]2C(=O)N[C@@H](CCN)C(=O)Nc2ccc(Cl)c(C)c2)C1 [Compound 12-154]	> 7.30
Cc1cc(NC(=O)[C@H](CCN)NC(=O)[C@@H]2Cc3ccccc3CN2C(=O)CCC(=O)N2CCCC(C)(C)C2)ncc1Cl [Compound 12-155]	> 7.30
Cc1cc(NC(=O)[C@H](CCN)NC(=O)[C@@H]2Cc3ccccc3CN2C(=O)CCC(=O)N2CCCC23CCC3)ncc1Cl [Compound 12-156]	> 7.30
Cc1cc(NC(=O)[C@H](CCN)NC(=O)[C@@H]2Cc3ccccc3CN2C(=O)CCC(=O)N2CCCC2(C)C)ncc1Cl [Compound 12-157]	> 7.30
Cc1cc(NC(=O)[C@H](CCN)NC(=O)[C@@H]2Cc3ccccc3CN2C(=O)CCC(=O)N2CCCC3(CCC3)C2)ncc1Cl [Compound 12-158]	> 7.30
Cc1cc(NC(=O)[C@H](CCN)NC(=O)[C@@H]2Cc3ccccc3CN2C(=O)CCC(=O)N2CCC(C)(C)CC2)ncc1Cl [Compound 12-159]	> 7.30
O=C(CCC(=O)N1Cc2ccccc2C[C@H]1C(=O)NC1(C(=O)Nc2ccc3c(c2)CCC3)CCNCC1)c1ccccc1 [Compound 13-1]	> 7.30
Cc1ccc(NC(=O)C2(NC(=O)[C@@H]3Cc4ccccc4CN3C(=O)CCC(=O)c3ccccc3)CCNCC2)c(F)c1 [Compound 13-2]	6.60 to 7.30
Cc1cccc(NC(=O)C2(NC(=O)[C@@H]3Cc4ccccc4CN3C(=O)CCC(=O)c3ccccc3)CCNCC2)c1F [Compound 13-3]	6.60 to 7.30
COc1cc(Cl)ccc1NC(=O)[C@H](CCN)NC(=O)[C@@H]1Cc2ccccc2CN1C(=O)CCC(=O)c1ccccc1 [Compound 13-4]	6.60 to 7.30
CCc1cccc(NC(=O)[C@H](CCN)NC(=O)[C@@H]2Cc3ccccc3CN2C(=O)CCC(=O)c2ccccc2)c1OC [Compound 13-5]	6.60 to 7.30
COc1cc(F)ccc1NC(=O)[C@H](CCN)NC(=O)[C@@H]1Cc2ccccc2CN1C(=O)CCC(=O)c1ccccc1 [Compound 13-6]	< 6.30
Cc1ccc(NC(=O)[C@H](CCN)NC(=O)[C@@H]2Cc3ccccc3CN2C(=O)CCC(=O)c2ccccc2)c(OC(F)(F)F)c1 [Compound 13-7]	6.60 to 7.30
NCC[C@H](NC(=O)[C@@H]1Cc2ccccc2CN1C(=O)CCC(=O)c1ccccc1)C(=O)Nc1cc(F)ccc1Cl [Compound 14-1, (S)—N—((S)-4-amino-1-((2-chloro-5-fluorophenyl)amino)-1-oxobutan-2-yl)-2-(4-oxo-4-phenylbutanoyl)-1,2,3,4-tetrahydroisoquinoline-3-carboxamide]	6.30 to 6.60
NCC[C@H](NC(=O)[C@@H]1Cc2ccccc2CN1C(=O)CCC(=O)c1ccccc1)C(=O)Nc1cc(Cl)c(Cl)cc1C(F)(F)F [Compound 14-2]	> 7.30
Cc1c(Cl)ccc(NC(=O)[C@H](CCN)NC(=O)[C@@H]2Cc3ccccc3CN2C(=O)CCC(=O)c2ccccc2)c1Cl [Compound 14-3]	> 7.30
NCC[C@H](NC(=O)[C@@H]1Cc2ccccc2CN1C(=O)CCC(=O)c1ccccc1)C(=O)Nc1cc(Cl)c(Cl)c(Cl)c1 [Compound 14-4]	> 7.30
Cc1cccc(F)c1NC(=O)[C@H](CCN)NC(=O)[C@@H]1Cc2ccccc2CN1C(=O)CCC(=O)c1ccccc1 [Compound 14-5]	6.30 to 6.60
Cc1cccc(NC(=O)[C@H](CCN)NC(=O)[C@@H]2Cc3ccccc3CN2C(=O)CCC(=O)c2ccccc2)c1Cl [Compound 14-6]	> 7.30
NCC[C@H](NC(=O)[C@@H]1Cc2ccccc2CN1C(=O)CCC(=O)c1ccccc1)C(=O)Nc1c(Cl)cccc1Cl [Compound 14-7]	< 6.30
NCC[C@H](NC(=O)[C@@H]1Cc2ccccc2CN1C(=O)CCC(=O)c1ccccc1)C(=O)Nc1cccc(Cl)c1Cl [Compound 14-8]	> 7.30
NCC[C@H](NC(=O)[C@@H]1Cc2ccccc2CN1C(=O)CCC(=O)c1ccccc1)C(=O)Nc1c(F)cccc1Cl [Compound 14-9]	6.30 to 6.60
Cc1cccc(Cl)c1NC(=O)[C@H](CCN)NC(=O)[C@@H]1Cc2ccccc2CN1C(=O)CCC(=O)c1ccccc1 [Compound 14-10]	< 6.30
NCC[C@H](NC(=O)[C@@H]1Cc2ccccc2CN1C(=O)CCC(=O)c1ccccc1)C(=O)Nc1cc(Cl)ccc1Cl [Compound 14-11]	6.60 to 7.30

Compound	pEC50
NCC[C@H](NC(=O)[C@@H]1Cc2ccccc2CN1C(=O)CCC(=O)c1ccccc1)C(=O)Nc1ccc(Cl)cc1C(F)(F)F [Compound 14-12]	6.60 to 7.30
Cc1ccc(NC(=O)[C@H](CCN)NC(=O)[C@@H]2Cc3ccccc3CN2C(=O)CCC(=O)c2ccccc2)c(C(F)(F)F)c1 [Compound 14-13]	6.30 to 6.60
NCC[C@H](NC(=O)[C@@H]1Cc2ccccc2CN1C(=O)CCC(=O)c1ccccc1)C(=O)Nc1cc(Cl)ccc1C(F)(F)F [Compound 14-14]	6.60 to 7.30
NCC[C@H](NC(=O)[C@@H]1Cc2ccccc2CN1C(=O)CCC(=O)c1ccccc1)C(=O)Nc1ccccc1C(F)(F)F [Compound 14-15]	6.30 to 6.60
NCC[C@H](NC(=O)[C@@H]1Cc2ccccc2CN1C(=O)CCC(=O)c1ccccc1)C(=O)Nc1cccc(Cl)c1C(F)(F)F [Compound 14-16]	6.30 to 6.60
Cc1cccc(NC(=O)[C@H](CCN)NC(=O)[C@@H]2Cc3ccccc3CN2C(=O)CCC(=O)c2ccccc2)c1C#N [Compound 14-19]	6.60 to 7.30
Cc1ccc(C#N)cc1NC(=O)[C@H](CCN)NC(=O)[C@@H]1Cc2ccccc2CN1C(=O)CCC(=O)c1ccccc1 [Compound 14-20]	6.30 to 6.60
CCc1c(Cl)ccc(NC(=O)[C@H](CCN)NC(=O)[C@@H]2Cc3ccccc3CN2C(=O)CCC(=O)c2ccccc2)c1Cl [Compound 14-21]	6.60 to 7.30
[N-]=[N+]=NCC[C@H](NC(=O)[C@@H]1Cc2ccccc2CN1C(=O)CCC(=O)c1ccccc1)C(=O)Nc1ccc(Cl)c(Cl)c1F [Compound 14-22, (S)—N—((S)-4-azido-1-((3,4-dichloro-2-fluorophenyl)amino)-1-oxobutan-2-yl)-2-(4-oxo-4-phenylbutanoyl)-1,2,3,4-tetrahydroisoquinoline-3-carboxamide]	6.30 to 6.60
NCC[C@H](NC(=O)[C@@H]1Cc2ccccc2CN1C(=O)CCC(=O)c1ccccc1)C(=O)Nc1ccc(Cl)cc1OC(F)(F)F [Compound 14-23]	6.60 to 7.30
Cc1cc(OC(F)(F)F)c(NC(=O)[C@H](CCN)NC(=O)[C@@H]2Cc3ccccc3CN2C(=O)CCC(=O)c2ccccc2)cc1Cl [Compound 14-24]	> 7.30
Cc1ccc(OC(F)(F)F)c(NC(=O)[C@H](CCN)NC(=O)[C@@H]2Cc3ccccc3CN2C(=O)CCC(=O)c2ccccc2)c1 [Compound 14-25]	> 7.30
N#Cc1c(NC(=O)[C@H](CCN)NC(=O)[C@@H]2Cc3ccccc3CN2C(=O)CCC(=O)c2ccccc2)ccc(Cl)c1Cl [Compound 14-26]	6.60 to 7.30
COc1c(NC(=O)[C@H](CCN)NC(=O)[C@@H]2Cc3ccccc3CN2C(=O)CCC(=O)c2ccccc2)ccc(Cl)c1Cl [Compound 14-27]	< 6.30
NCC[C@@H](NC(=O)[C@@H]1Cc2ccccc2CN1C(=O)CCC(=O)c1ccccc1)C(=O)Nc1ccc(Cl)c(Cl)c1F [Compound 14-29]	6.30 to 6.60
CC1(C)CCN(C(=O)CCC(=O)N2Cc3ccccc3C[C@H]2C(=O)N[C@@H](CCN)C(=O)Nc2ccc(Cl)c(Cl)c2F)CC1 [Compound 15-1, (S)—N—((S)-4-amino-1-((3,4-dichloro-2-fluorophenyl)amino)-1-oxobutan-2-yl)-2-(4-(4,4-dimethylpiperidin-1-yl)-4-oxobutanoyl)-1,2,3,4-tetrahydroisoquinoline-3-carboxamide]	> 7.30
CC1(C)CCCN1C(=O)CCC(=O)N1Cc2ccccc2C[C@H]1C(=O)N[C@@H](CCN)C(=O)Nc1ccc(Cl)c(Cl)c1F [Compound 15-4]	> 7.30
CC1CN(C(=O)CCC(=O)N2Cc3ccccc3C[C@H]2C(=O)N[C@@H](CCN)C(=O)Nc2ccc(Cl)c(Cl)c2F)CCN1C (stereo partly drawn) [Compound 15-5]	> 7.30
NCC[C@H](NC(=O)[C@@H]1Cc2ccccc2CN1C(=O)CCC(=O)N1CCCCC12CCC2)C(=O)Nc1ccc(Cl)c(Cl)c1F [Compound 15-7]	> 7.30
NCC[C@H](NC(=O)[C@@H]1Cc2ccccc2CN1C(=O)CCC(=O)N1CCc2ccccc2C1)C(=O)Nc1ccc(Cl)c(Cl)c1F [Compound 15-8]	> 7.30
CC(C)C1CCN(C(=O)CCC(=O)N2Cc3ccccc3C[C@H]2C(=O)N[C@@H](CCN)C(=O)Nc2ccc(Cl)c(Cl)c2F)C1 (stereo partly drawn) [Compound 15-9]	> 7.30
CC(C)C1CCCN1C(=O)CCC(=O)N1Cc2ccccc2C[C@H]1C(=O)N[C@@H](CCN)C(=O)Nc1ccc(Cl)c(Cl)c1F (stereo partly drawn) [Compound 15-10]	> 7.30
CC1(C)COCCN1C(=O)CCC(=O)N1Cc2ccccc2C[C@H]1C(=O)N[C@@H](CCN)C(=O)Nc1ccc(Cl)c(Cl)c1F [Compound 15-11]	> 7.30
NCC[C@H](NC(=O)[C@@H]1Cc2ccccc2CN1C(=O)CCC(=O)N1CCC2(CC1)COC2)C(=O)Nc1ccc(Cl)c(Cl)c1F [Compound 15-12]	6.30 to 6.60
CS(=O)(=O)C1CCN(C(=O)CCC(=O)N2Cc3ccccc3C[C@H]2C(=O)N[C@@H](CCN)C(=O)Nc2ccc(Cl)c(Cl)c2F)CC1 [Compound 15-13]	< 6.30
